Laboratory results reported in ChEMBL document CHEMBL3832761, “MMV Pathogen Box Bioactivity Data” (2017).

Legend:
Plasmodium falciparum [1] = test: Antimalarial activity: Asexual Blood Stage Plasmodium falciparum 3D7 IC50 (uM); format: functional, organism-based
Plasmodium falciparum [2] = test: Antimalarial activity: Asexual Blood Stage Plasmodium falciparum Dd2 IC50 (uM); format: functional, organism-based
Plasmodium falciparum [3] = test: Antimalarial activity: Asexual Blood Stage Plasmodium falciparum W2 IC50 (uM); format: functional, organism-based
Plasmodium berghei [4] = test: Antimalarial activity: Liver Stage Plasmodium berghei sporozoite Luciferase assay: inhibition at 10 uM (%); format: functional
Plasmodium berghei [5] = test: Antimalarial activity: Liver Stage Plasmodium berghei sporozoite Luciferase assay IC50 (uM); format: functional, organism-based
Plasmodium falciparum [6] = test: Antimalarial activity: Gametocytes Plasmodium falciparum NF54 Gametocytes Stage V: inhibition at 10 uM (%); format: functional
HepG2 [7] = test: Cytotoxicity data HepG2 CC20 (uM); format: functional
HepG2 [8] = test: HepG2 CC50 (uM) Cytotoxicity; format: functional; settings: Homo sapiens

Structure (SMILES) | IC50 (Plasmodium falciparum [1]) | IC50 (Plasmodium falciparum [2]) | IC50 (Plasmodium falciparum [3]) | IC50 (Plasmodium berghei [5]) | Inhibition (Plasmodium berghei [4]) | Inhibition (Plasmodium falciparum [6]) | CC20 (HepG2 [7]) | CC50 (HepG2 [8])
CN(C)CCNC(=O)N1CCCN(c2ncnc3cc(-c4ccccc4)sc23)CC1 | 1580 nM | 2910 nM | 3850 nM | 1970 nM | 73% | 5% | 6.21 µM | > 10 µM
Cc1ccc(S(=O)(=O)N2CCN(C(=O)c3cc(-c4ccccc4)n[nH]3)CC2)cc1 | 1040 nM | 1730 nM | 400 nM | 630 nM | 92% | 17% | >80 µM | > 10 µM
O=C(Nc1ccc(N2CCNCC2)nc1)c1oc(-c2ccccc2)nc1C(F)(F)F | 1220 nM | 1640 nM | 3000 nM | 2550 nM | 78% | 44% | 13.4 µM | > 10 µM
COc1cccc(-c2cc3c(Nc4cccnc4)nccc3[nH]2)c1 | 1280 nM | 2490 nM | 2530 nM | > 10000 nM | 77% | 6% | 2.29 µM | > 10 µM
Cc1ccc(NC(=O)c2cc(S(=O)(=O)NC(C)(C)C)ccc2C)nc1 | 930 nM | 2510 nM | 1180 nM | 7350 nM | 82% | 2% | >80 µM | > 7.5 µM
O=C(Nc1cccc(Cl)c1)c1cnc(N2CCN(c3ccncc3)CC2)c(Cl)c1 | 830 nM | 1330 nM | 1550 nM | 2350 nM | 99% | 51% | 2.68 µM | > 10 µM

Continued, in another order:

IC50 (Plasmodium falciparum [1]) | IC50 (Plasmodium falciparum [2]) | IC50 (Plasmodium falciparum [3]) | IC50 (Plasmodium berghei [5]) | Structure (SMILES) | Inhibition (Plasmodium berghei [4]) | Inhibition (Plasmodium falciparum [6]) | CC20 (HepG2 [7]) | CC50 (HepG2 [8])
630 nM | 1470 nM | 1300 nM | > 6000 nM | Cc1ccc(S(=O)(=O)n2cc(-c3ccnc(N)c3)c3cc(Br)cnc32)cc1 | 99% | 17% | 5.28 µM | > 6 µM
220 nM | 220 nM | 70 nM | 1210 nM | Cc1cc(C)n2nc(C(=O)Nc3cc(C(F)(F)F)ccc3N3CCOCC3)nc2n1 | 88% | 4% | >80 µM | > 10 µM
580 nM | 920 nM | 310 nM | 2250 nM | CC1CC1C(=O)NC1CCN(CC2(c3ccccc3)CCCCC2)CC1 (configuration not stated) | 100% | 24% | >80 µM | > 10 µM
810 nM | 2020 nM | 2860 nM | 8570 nM | Cc1c[nH]c(CCNC(=O)c2cc(-c3ccc(Cl)cc3)cs2)n1 | 85% | 15% | 6.9 µM | > 10 µM
710 nM | 1500 nM | 680 nM | 170 nM | Cc1nnc(NC(=O)c2cn(-c3ccccc3)nc2-c2ccccc2C)o1 | 100% | 16% | 0.92 µM | > 10 µM
510 nM | 410 nM | 620 nM | > 10000 nM | O=C1Nc2ccc(Br)cc2C12NCCc1c2[nH]c2ccccc12 (configuration not stated) | 57% | 38% | 19.9 µM | > 10 µM
410 nM | 190 nM | 1050 nM | 320 nM | CC(C)(CN)c1nc(-c2ccc(Cl)c(O)c2)c(-c2ccnc(N)n2)[nH]1 | 100% | 9% | 5.77 µM | > 10 µM
230 nM | 740 nM | 420 nM | > 10000 nM | Nc1nccc2ccc(Oc3ccncc3)cc12 | 52% | 43% | >80 µM | > 10 µM
